Results published in patent US11484032B2, “Compositions for inhibition of insect sensing” (Vanderbilt University, priority 2011, dated 2022).
Like-named read-outs stand apart in the source and are kept apart here. Blank lines part the entries; values can stand above or below the molecule they belong to.

How the values were obtained:
Format in all cases: cell-based
AgORco+AgOR48 = molecular target: T1, AgORco+AgOR48 (Anopheles gambiae, UniProt Q7QCC7); assay: Ca2+ imaging, HEK cells expressing AgORco+AgOR48; conditions: for Orco + 48 Agonist % value Of VUAA1: relative to VUAA1; for Orco + 48 Agonist EC50 (relative to VUAA1): stated in words relative to VUAA1; for Orco + 48 Agonist EC50 (given only relative to VUAA1): comparison with VUAA1 in words
T1 construct: expressed in transfected cells
T1 sequence (Q7QCC7 1-478): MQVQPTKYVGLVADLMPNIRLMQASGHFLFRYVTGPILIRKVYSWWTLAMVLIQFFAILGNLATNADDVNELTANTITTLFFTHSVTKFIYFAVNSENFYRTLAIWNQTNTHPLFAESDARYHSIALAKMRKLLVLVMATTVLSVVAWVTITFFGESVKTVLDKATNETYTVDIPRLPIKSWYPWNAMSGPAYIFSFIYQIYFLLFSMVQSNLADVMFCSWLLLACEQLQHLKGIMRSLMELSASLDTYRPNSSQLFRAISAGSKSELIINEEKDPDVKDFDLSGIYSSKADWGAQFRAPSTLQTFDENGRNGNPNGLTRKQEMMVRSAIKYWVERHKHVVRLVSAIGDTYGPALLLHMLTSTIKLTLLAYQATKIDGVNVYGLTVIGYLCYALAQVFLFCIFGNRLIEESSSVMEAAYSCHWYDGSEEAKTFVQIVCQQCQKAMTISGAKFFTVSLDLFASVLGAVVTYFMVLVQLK
Text: (§1) For transient transfections, ORs were cloned into pCl (Promega) and transfected into Flp-In™ T-REx™293 cell lines (Invitrogen) with Fu GENE6 (Roche). For the creation of stable cell lines, a cell culture expression vector capable of expressing Orco in conjunction with a conventional OR, pcDNA5/FRT/TO (Invitrogen) was modified to create two individual expression cassettes each under the control of a separate CMV/Tet02 promoter and a BGH poly-adenylation signal. Cells (as above) were transfected with the modified pcDNA5 plasmid along with POG44 (a Flp recombinase expression plasmid) to facilitate site-specific recombination. Stable cell lines were selected using Hygromycin B (Invitrogen). Cells were maintained in DMEM (Invitrogen) supplemented with 10% Tetracycline-free FBS (HyClone) and 15 ng/ml Blasticidin. For fluorometric Ca2+ measurements, stable lines expressing ORs of interest were seeded at 20,000 cells/well in black wall, poly-lysine coated 384-well cell culture plates (Greiner) and treated with […] tetracycline (Sigma) overnight to induce OR expression. Cells were dye-loaded with 1.8 uM Fluo-4 AM (Molecular Probes), 2.5 mM Probenecid (Molecular Probes) in assay buffer (20 mM HEPES, IX HBSS) for 45 minutes at 37° C. in 5% CO2 prior to each assay. Ca^2+ mobilization was assayed in an FDSS6000 (Hamamatsu). Baseline readings were taken for 20 s before automated addition of compound previously diluted in DMSO and assay buffer. Ratios were described as Maximum/Minimum response and each response was normalized to the maximum responder.
The ability of VUAA1 and its analogs to agonize representative ORco proteins from dipteran (Anopheles gambiae, AgORco), lepidopteran (Heliothis virescens, HvORco) and hymenopteran (Harpegnathos saltator, HsORco) orders was tested. […] Furthermore, the hierarchy of VUAA series potency was the same, irrespective of whether AgORco was co-expressed with AgOR65 or AgOR48 tuning ORs (FIG. 45). Without wishing to be bound by a particular theory, odorant ligands are thought to activate the complex via interaction with the tuning ORx and thereby affect ORco/ORx channel properties. […] These findings indicate VUAA-class OR co-modulators are viable compounds for further development as broad-spectrum insect control strategies, and VUAA4 can provide an advance in the pharmacological profile of VUAA-based compounds.

AgOrco+AgOR65 = molecular target: T2, AgOrco+AgOR65 (Anopheles gambiae, UniProt Q7QCC7); assay: Ca2+ imaging, HEK cells expressing AgOrco+AgOR65
T2 construct: expressed in transfected cells
T2 sequence (Q7QCC7 1-478): T1 sequence (Q7QCC7 1-478)
Text: as §1
For VUAA0, a single methyl from the para position of the aniline ring (compound VUAA0, FIG. 44) in the VUAA1 structure was removed. […] In VUAA0.5, unsaturation was introduced at the para position of the aniline ring (VUAA0.5, FIG. 44). […] In VUAA2, the ethyl group of the aniline ring in VUAA1 was replaced with an isopropyl group (VUAA2, FIG. 44).

Orco (AgORco) = molecular target: T3, Orco (AgORco) (Anopheles gambiae, UniProt Q7QCC7); assay: Fluo-4 Ca2+ imaging, HEK293 cells expressing Orco alone; conditions: for Orco Agonist EC50 (relative to VUAA1): stated in words relative to VUAA1; for Emax: HEK293, read-out: Orco Agonist % value Of VUAA1
T3 construct: expressed in transfected cells
T3 sequence (Q7QCC7 1-478): T1 sequence (Q7QCC7 1-478)
Text: as §1

AgORco+AgOR10 = molecular target: T4, AgORco+AgOR10 (Anopheles gambiae, UniProt Q7QCC7); assay: Fluo-4 Ca2+ imaging, HEK293 cells expressing Orco+AgOR10; set-up: Orco 10 + Orco Angatonist % Reduction / Orco 10 + Orco Agonist % of control: concentration or dose not given beside the values; conditions: 10 + Orco; for Orco 10 + Orco Agonist, compared with VUAA1: agonist mode, qualitative, relative to VUAA1; for Orco 10 + Orco Angatonist % Reduction: antagonist mode
T4 construct: expressed in transfected cells
T4 sequence (Q7QCC7 1-478): T1 sequence (Q7QCC7 1-478)
Text: as §1
As part of an ongoing, cell based calcium imaging screen for novel small-molecule modulators of AgORs that might disrupt olfactory-driven mosquito behaviors (Rinker et al manuscript in preparation), the inventors identified a number of compounds that activated AgOR10+AgORco-expressing human embryonic kidney (HEK293) cells. One of these compounds, (FIG. 3 A) denoted here as VUAA1, elicited activity consistent with allosteric agonism and was pursued for its novel properties. The identity of VUAA1 was verified using high-resolution mass spectrometry (HRMS) as well as ^1H and ^13C NMR. […] As AgORco was the common element among these functional responses, the inventors postulated that VUAA1 was a potential AgORco agonist.

[1] = Orco + 48, read-out: Orco + 48 Agonist EC50
[2] = Orco + 65, read-out: Orco + 65 Agonist EC50
[3] = Orco alone, read-out: Orco Agonist EC50
[4] = Orco alone, agonist, relative to VUAA1
[5] = Orco + 48, agonist, read-out: Orco + 48 Agonist EC50

EC50 (AgORco+AgOR48; [1]): 996 µM
EC50 (AgOrco+AgOR65; [2]): 335 µM
EC50 (Orco (AgORco); [3]): 262 µM
Structure (SMILES): CCn1c(SCC(=O)Nc2ccc(C)cc2)nnc1-c1cccnc1 [drawing 372]

Structure (SMILES): C=CCn1c(SCC(=O)Nc2ccc(C(C)C)cc2)nnc1-c1ccncc1
Orco + 48 Agonist % value Of VUAA1 (AgORco+AgOR48; Orco + 48, agonist): <VUAA1
Orco + 48 Agonist EC50 (relative to VUAA1) (AgORco+AgOR48; Orco + 48, agonist): <VUAA1

Structure (SMILES): CCCc1ccc(NC(=O)CSc2nnc(-c3ccncc3)n2CC)cc1
Orco + 48 Agonist EC50 (given only relative to VUAA1) (AgORco+AgOR48; Orco + 48): <VUAA1
Orco + 48 Agonist % value Of VUAA1 (AgORco+AgOR48; Orco + 48): <VUAA1

Structure (SMILES): CCn1c(SCC(=O)Nc2ccc(C(C)C)cc2)nnc1-c1ccn(C)n1
Orco Agonist % value Of VUAA1 (Orco (AgORco); [4]): <VUAA1
Orco Agonist EC50 (relative to VUAA1) (Orco (AgORco); Orco alone, agonist): <VUAA1

EC50 (AgORco+AgOR48; [5]): 19 µM
Structure (SMILES): CCCn1c(SCC(=O)Nc2ccc(C(C)C)cc2)nnc1-c1ccncc1

Structure (SMILES): O=C(CSc1nnc(-c2ccncc2)n1C1CC1)Nc1ccc(Br)cc1F
Orco + 48 Agonist % value Of VUAA1 (AgORco+AgOR48; Orco + 48, agonist): <VUAA1
Orco + 48 Agonist EC50 (relative to VUAA1) (AgORco+AgOR48; Orco + 48, agonist): <VUAA1

Structure (SMILES): C=Cc1ccc(NC(=O)CSc2nnc(-c3ccncc3)n2C2CC2)cc1
Orco + 48 Agonist % value Of VUAA1 (AgORco+AgOR48; Orco + 48, agonist): <VUAA1
Orco + 48 Agonist EC50 (relative to VUAA1) (AgORco+AgOR48; Orco + 48, agonist): <VUAA1

Structure (SMILES): C=Cc1ccc(NC(=O)CSc2nnc(-c3cccnc3)n2CC)cc1 [drawing 376]
EC50 (AgORco+AgOR48; [1]): 37.4 µM
Orco + 48 Agonist % value Of VUAA1 (AgORco+AgOR48; Orco + 48): 77%
Orco 10 + Orco Agonist, compared with VUAA1 (AgORco+AgOR10): <VUAA1
Emax (Orco (AgORco)): 57%
EC50 (Orco (AgORco); [3]): 102 µM

Structure (SMILES): CCn1c(SCC(=O)Nc2ccc(Br)cc2F)nnc1-c1cccnc1
Orco 10 + Orco Agonist, compared with VUAA1 (AgORco+AgOR10): <VUAA1
Orco 10 + Orco Angatonist % Reduction (AgORco+AgOR10): 0.00%
Orco Agonist value compared with VUAA1 (Orco (AgORco); Orco alone, qualitative, relative to VUAA1): <VUAA1
EC50 (Orco (AgORco); [3]): 192 µM

EC50 (AgORco+AgOR48; [5]): 16.8 µM
Structure (SMILES): CCn1c(SCC(=O)Nc2ccc(C(C)C)cc2)nnc1-c1cncs1

Structure (SMILES): CCc1ccc2c(c1)CCN2C(=O)CSc1nnc(-c2cccnc2)n1CC
EC50 (AgORco+AgOR48; [1]): 12.8 µM
Orco 10 + Orco Agonist, compared with VUAA1 (AgORco+AgOR10): >VUAA1
Emax (Orco (AgORco)): 121%
EC50 (Orco (AgORco); [3]): 35 µM

Structure (SMILES): CCn1c(SCC(=O)Nc2ccc(C(C)C)cc2)nnc1-c1cc[nH]n1
Orco Agonist % value Of VUAA1 (Orco (AgORco); [4]): <VUAA1
Orco Agonist EC50 (relative to VUAA1) (Orco (AgORco); Orco alone, agonist): <VUAA1

Structure (SMILES): CCn1c(SCC(=O)Nc2ccc(C(C)C)cc2)nnc1-c1cc[nH]c1
EC50 (AgORco+AgOR48; [5]): 13.7 µM
Orco + 48 Agonist % value Of VUAA1 (AgORco+AgOR48; Orco + 48, agonist): Poor

Structure (SMILES): CCn1c(SCC(=O)N2CCc3cc(Br)ccc32)nnc1-c1cccnc1
Orco 10 + Orco Agonist, compared with VUAA1 (AgORco+AgOR10): >VUAA1
Orco 10 + Orco Angatonist % Reduction (AgORco+AgOR10): 59%
Emax (Orco (AgORco)): 59%
EC50 (Orco (AgORco); [3]): 55 µM

Structure (SMILES): CCn1c(SCC(=O)Nc2ccc(Br)cc2F)nnc1-c1ccncc1
Orco + 48 Agonist EC50 (given only relative to VUAA1) (AgORco+AgOR48; Orco + 48): <VUAA1
Orco + 48 Agonist % value Of VUAA1 (AgORco+AgOR48; Orco + 48): <VUAA1

Structure (SMILES): CC(C)c1ccc(NC(=O)CSc2nnc(-c3ccncc3)n2C2CC2)cc1 [drawing 634]
EC50 (AgORco+AgOR48; [5]): 1.9 µM
Orco + 48 Agonist % value Of VUAA1 (AgORco+AgOR48; Orco + 48, agonist): 122%
EC50 (AgOrco+AgOR65; Orco + 65, agonist, read-out: Orco + 65 Agonist EC50): 3.1 µM
EC50 (Orco (AgORco); Orco alone, agonist): 3.5 µM

Structure (SMILES): CCCCCCC1CCCC(=O)O1 [D-undecalactone, reference compound]
EC50 (AgORco+AgOR48; AgORco co-expressed with AgOR48, read-out: EC50): 0.26 µM

Structure (SMILES): CCCc1ccc(NC(=O)CSc2nnc(-c3ccncc3)n2C2CC2)cc1
Orco + 48 Agonist % value Of VUAA1 (AgORco+AgOR48; Orco + 48, agonist): <VUAA1
Orco + 48 Agonist EC50 (relative to VUAA1) (AgORco+AgOR48; Orco + 48, agonist): <VUAA1

Structure (SMILES): C=Cc1ccc(NC(=O)CSc2nnc(-c3ccncc3)n2CC)cc1
Orco + 48 Agonist EC50 (given only relative to VUAA1) (AgORco+AgOR48; Orco + 48): <VUAA1
Orco + 48 Agonist % value Of VUAA1 (AgORco+AgOR48; Orco + 48): <VUAA1

Structure (SMILES): CCn1c(SCC(=O)Nc2ccc(C(C)C)cc2)nnc1-c1ccnc(F)c1
EC50 (AgORco+AgOR48; [1]): 75.2 µM
Orco + 48 Agonist % value Of VUAA1 (AgORco+AgOR48; Orco + 48): 62%
Emax (Orco (AgORco)): 38%
EC50 (Orco (AgORco); [3]): 100 µM

Structure (SMILES): CCc1ccc(NC(=O)CSc2nnc(-c3ccncc3)n2CC)cc1
Orco + 48 Agonist EC50 (given only relative to VUAA1) (AgORco+AgOR48; Orco + 48): <VUAA1
Orco + 48 Agonist % value Of VUAA1 (AgORco+AgOR48; Orco + 48): <VUAA1

Structure (SMILES): CCCc1ccc(NC(=O)CSc2nnc(-c3cccnc3)n2CC)cc1
EC50 (AgORco+AgOR48; [1]): 19.8 µM
Orco 10 + Orco Agonist, compared with VUAA1 (AgORco+AgOR10): <VUAA1
Emax (Orco (AgORco)): 87%
EC50 (Orco (AgORco); [3]): 63 µM

EC50 (AgORco+AgOR48; [5]): 13 µM
Structure (SMILES): CCc1ccc(NC(=O)CSc2nnc(-c3ccncc3)n2C2CC2)cc1

Structure (SMILES): CCn1c(SCC(=O)Nc2ccc(C(C)C)cc2)nnc1-c1ccncc1
EC50 (AgORco+AgOR48; [1]): 3.5 µM
Orco + 48 Agonist % value Of VUAA1 (AgORco+AgOR48; Orco + 48): 112%
EC50 (AgOrco+AgOR65; [2]): 8.2 µM
Emax (Orco (AgORco)): 136%
EC50 (Orco (AgORco); [3]): 7.4 µM

Structure (SMILES): C=CCc1ccc(O)c(OC)c1 [eugenol, reference compound]
EC50 (AgOrco+AgOR65; heteromeric OR channels AgOrco+AgOR65, read-out: EC50): 0.5 µM

EC50 (AgORco+AgOR48; [1]): 2.2 µM
Structure (SMILES): CCn1c(SCCC(=O)Nc2ccc(C(C)C)cc2)nnc1-c1cccnc1
